Assay results taken from the CheMixHub viscosity set.

Assay: xn = mol fraction of the nth substance listed

CCCC(=O)OCC(COC(=O)CCC)OC(=O)CCC + CCO
viscosity [mPa·s], 101.33 kPa
Conditions | x1 = 0.1 | x1 = 0.2 | x1 = 0.3 | x1 = 0.4 | x1 = 0.5 | x1 = 0.6 | x1 = 0.7 | x1 = 0.8 | x1 = 0.9
298 K | 1.59 | 2.22 | 2.92 | 3.63 | 4.38 | 5.15 | 5.97 | 6.78 | 7.71
303 K | 1.44 | 1.98 | 2.58 | 3.19 | 3.81 | 4.48 | 5.14 | 5.82 | 6.58
308 K | 1.31 | 1.78 | 2.29 | 2.81 | 3.35 | 3.91 | 4.48 | 5.04 | 5.67
313 K | 1.21 | 1.61 | 2.06 | 2.51 | 2.97 | 3.43 | 3.92 | 4.4 | 4.92

CCCCN + CCO
viscosity [mPa·s]
Conditions | 298.15 K | 303.15 K | 313.15 K
100 kPa, x2 = 0.102 | 0.514 | – | –
100 kPa, x2 = 0.15 | 0.542 | – | –
100 kPa, x2 = 0.295 | 0.626 | – | –
100 kPa, x2 = 0.449 | 0.749 | – | –
100 kPa, x2 = 0.501 | 0.791 | – | –
100 kPa, x2 = 0.595 | 0.872 | – | –
100 kPa, x2 = 0.68 | 0.931 | – | –
100 kPa, x2 = 0.752 | 0.977 | – | –
100 kPa, x2 = 0.897 | 1.051 | – | –
101.33 kPa, x1 = 0.1093 | – | 0.9614 | 0.7843
101.33 kPa, x1 = 0.1943 | – | 0.9273 | 0.747
101.33 kPa, x1 = 0.2825 | – | 0.8774 | 0.7048
101.33 kPa, x1 = 0.4151 | – | 0.7915 | 0.6383
101.33 kPa, x1 = 0.5136 | – | 0.7146 | 0.5888
101.33 kPa, x1 = 0.6128 | – | 0.6369 | 0.5355
101.33 kPa, x1 = 0.7066 | – | 0.5687 | 0.4844
101.33 kPa, x1 = 0.8039 | – | 0.5095 | 0.4428
101.33 kPa, x1 = 0.894 | – | 0.4717 | 0.4132

CC[N+](=O)[O-] + CCO
viscosity [mPa·s], 101.33 kPa
Conditions | 293.15 K | 303.15 K | 313.15 K
x2 = 0.05 | 0.669 | 0.598 | 0.538
x2 = 0.1001 | 0.655 | 0.584 | 0.526
x2 = 0.15 | 0.648 | 0.576 | 0.519
x2 = 0.2 | 0.645 | 0.573 | 0.512
x2 = 0.25 | 0.65 | 0.57 | 0.507
x2 = 0.3 | 0.651 | 0.571 | 0.506
x2 = 0.35 | 0.658 | 0.575 | 0.509
x2 = 0.4 | 0.668 | 0.583 | 0.513
x2 = 0.45 | 0.681 | 0.593 | 0.519
x2 = 0.5 | 0.697 | 0.603 | 0.528
x2 = 0.55 | 0.716 | 0.618 | 0.538
x2 = 0.6 | 0.738 | 0.636 | 0.55
x2 = 0.65 | 0.769 | 0.656 | 0.567
x2 = 0.7 | 0.804 | 0.682 | 0.586
x2 = 0.7499 | 0.839 | 0.712 | 0.608
x2 = 0.8 | 0.886 | 0.748 | 0.637
x2 = 0.8499 | 0.944 | 0.793 | 0.672
x2 = 0.9 | 1.015 | 0.847 | 0.715
x2 = 0.9499 | 1.103 | 0.914 | 0.77

Cc1ccncc1 + CCO
298.15 K, 101.33 kPa
Conditions | viscosity [mPa·s]
x2 = 0.119 | 0.878
x2 = 0.2179 | 0.8832
x2 = 0.3335 | 0.8963
x2 = 0.426 | 0.9084
x2 = 0.5813 | 0.9345
x2 = 0.7893 | 0.9902
x2 = 0.8494 | 1.015
x2 = 0.9031 | 1.041

O=C(O)C(Cl)(Cl)Cl + CCOC(=O)c1ccccc1
298.15 K, 101 kPa
Conditions | viscosity [mPa·s]
x1 = 0.08874 | 2.324
x1 = 0.2096 | 2.93
x1 = 0.3125 | 3.711
x1 = 0.3982 | 4.61
x1 = 0.4907 | 5.848
x1 = 0.5795 | 7.068
x1 = 0.6758 | 8.374

CCCCN + CCOC(C)=O
303.15 K, 101 kPa
Conditions | viscosity [mPa·s]
x1 = 0.1573 | 0.4484
x1 = 0.2361 | 0.4671
x1 = 0.312 | 0.4741
x1 = 0.4217 | 0.4759
x1 = 0.5671 | 0.476
x1 = 0.6505 | 0.4772
x1 = 0.7907 | 0.4779
x1 = 0.8803 | 0.4928

O=C(O)C(Cl)(Cl)Cl + CCOC(C)=O
298.15 K, 101 kPa
Conditions | viscosity [mPa·s]
x1 = 0.1118 | 0.5878
x1 = 0.184 | 0.7309
x1 = 0.2807 | 1.001
x1 = 0.3846 | 1.449
x1 = 0.4878 | 2.176
x1 = 0.6142 | 3.467
x1 = 0.7008 | 4.709

CCCCN + CCOCCO
308.15 K, 101 kPa
Conditions | viscosity [mPa·s]
x2 = 0.0802 | 0.5335
x2 = 0.2044 | 0.6473
x2 = 0.3059 | 0.7671
x2 = 0.4065 | 0.8896
x2 = 0.5068 | 1.007
x2 = 0.6065 | 1.115
x2 = 0.7058 | 1.209
x2 = 0.9024 | 1.376

CCCCN + CO
viscosity [mPa·s]
Conditions | 298.15 K | 303.15 K | 313.15 K | 323.15 K
100 kPa, x2 = 0.1 | 0.505 | – | – | –
100 kPa, x2 = 0.203 | 0.552 | – | – | –
100 kPa, x2 = 0.299 | 0.599 | – | – | –
100 kPa, x2 = 0.399 | 0.653 | – | – | –
100 kPa, x2 = 0.501 | 0.707 | – | – | –
100 kPa, x2 = 0.598 | 0.747 | – | – | –
100 kPa, x2 = 0.697 | 0.761 | – | – | –
100 kPa, x2 = 0.796 | 0.732 | – | – | –
100 kPa, x2 = 0.9 | 0.65 | – | – | –
101 kPa, x2 = 0.1159 | – | 0.47 | 0.409 | 0.357
101 kPa, x2 = 0.2309 | – | 0.494 | 0.425 | 0.369
101 kPa, x2 = 0.3289 | – | 0.518 | 0.439 | 0.377
101 kPa, x2 = 0.426 | – | 0.549 | 0.458 | 0.386
101 kPa, x2 = 0.5325 | – | 0.584 | 0.482 | 0.397
101 kPa, x2 = 0.6186 | – | 0.607 | 0.498 | 0.405
101 kPa, x2 = 0.7296 | – | 0.617 | 0.508 | 0.411
101 kPa, x2 = 0.8167 | – | 0.602 | 0.502 | 0.41
101 kPa, x2 = 0.9076 | – | 0.562 | 0.481 | 0.408

CC[N+](=O)[O-] + CO
viscosity [mPa·s], 101.33 kPa
Conditions | 293.15 K | 303.15 K | 313.15 K
x2 = 0.0501 | 0.657 | 0.586 | 0.527
x2 = 0.0999 | 0.634 | 0.565 | 0.508
x2 = 0.1503 | 0.617 | 0.549 | 0.493
x2 = 0.2 | 0.603 | 0.536 | 0.48
x2 = 0.25 | 0.593 | 0.526 | 0.471
x2 = 0.3 | 0.584 | 0.517 | 0.462
x2 = 0.3501 | 0.576 | 0.51 | 0.455
x2 = 0.4 | 0.57 | 0.504 | 0.448
x2 = 0.45 | 0.564 | 0.498 | 0.442
x2 = 0.5 | 0.559 | 0.493 | 0.438
x2 = 0.55 | 0.556 | 0.489 | 0.433
x2 = 0.6 | 0.553 | 0.487 | 0.43
x2 = 0.65 | 0.552 | 0.485 | 0.428
x2 = 0.6999 | 0.552 | 0.486 | 0.428
x2 = 0.75 | 0.555 | 0.486 | 0.427
x2 = 0.8 | 0.558 | 0.487 | 0.428
x2 = 0.85 | 0.562 | 0.49 | 0.43
x2 = 0.9 | 0.567 | 0.495 | 0.434
x2 = 0.95 | 0.576 | 0.501 | 0.437

CCn1ccnc1 + CO
viscosity [mPa·s], 101 kPa
Conditions | 298.15 K | 308.15 K | 318.15 K
x1 = 0.0461 | 0.654 | 0.5768 | 0.5141
x1 = 0.1003 | 0.7495 | 0.6547 | 0.5802
x1 = 0.2389 | 1.012 | 0.8673 | 0.7489
x1 = 0.3039 | 1.133 | 0.967 | 0.8304
x1 = 0.3938 | 1.285 | 1.085 | 0.9324
x1 = 0.4588 | 1.383 | 1.163 | 0.9927
x1 = 0.5724 | 1.525 | 1.275 | 1.085
x1 = 0.7001 | 1.669 | 1.388 | 1.177
x1 = 0.794 | 1.766 | 1.467 | 1.24
x1 = 0.8988 | 1.861 | 1.536 | 1.296
x1 = 0.9431 | 1.89 | 1.56 | 1.316

Cc1ccncc1 + CO
298.15 K, 101.33 kPa
Conditions | viscosity [mPa·s]
x2 = 0.1671 | 0.8666
x2 = 0.3035 | 0.8547
x2 = 0.4194 | 0.8291
x2 = 0.5171 | 0.8161
x2 = 0.6328 | 0.7764
x2 = 0.7977 | 0.7033
x2 = 0.8892 | 0.6526
x2 = 0.967 | 0.5799

c1cc2c3c(cccc3c1)CC2 + CO
viscosity [mPa·s], 101.33 kPa
Conditions | 298.15 K | 303.15 K | 308.15 K | 313.15 K | 318.15 K
x1 = 0.00465 | 0.5715 | 0.5301 | 0.494 | 0.4598 | 0.436
x1 = 0.0072 | – | 0.5362 | 0.5036 | 0.4714 | 0.4405

CCCCN + COC(C)=O
303.15 K, 101 kPa
Conditions | viscosity [mPa·s]
x1 = 0.1441 | 0.4159
x1 = 0.2526 | 0.4351
x1 = 0.35 | 0.4469
x1 = 0.454 | 0.4552
x1 = 0.5721 | 0.458
x1 = 0.686 | 0.4596
x1 = 0.7578 | 0.4709
x1 = 0.8757 | 0.4985

CCCCN + COCCO
308.15 K, 101 kPa
Conditions | viscosity [mPa·s]
x2 = 0.1234 | 0.5285
x2 = 0.2404 | 0.6274
x2 = 0.3516 | 0.7219
x2 = 0.4576 | 0.8199
x2 = 0.5606 | 0.9142
x2 = 0.6503 | 0.9868
x2 = 0.7471 | 1.048
x2 = 0.8351 | 1.111
x2 = 0.9193 | 1.173

CN + CS(C)=O
303.15 K, 101 kPa
Conditions | viscosity [mPa·s]
x2 = 0.0607 | 1.738
x2 = 0.12 | 1.823
x2 = 0.2348 | 1.891
x2 = 0.4501 | 2.172
x2 = 0.6481 | 2.077
x2 = 0.8308 | 1.895
